Assay results from US11999727B2 (Tango Therapeutics, Inc., priority 2020, dated 2024).
Where two headings read alike, the source gives them in different places.

Columns and labels:
PRMT5 [1] = molecular target: T1, PRMT5 (Homo sapiens, UniProt O14744); test: PRMT5 biochemical IC50 assay with MTA as cofactor; details: PRMT5, MTA as cofactor; read-out: MTA IC50
T1 construct: purchased Viva (custom protein)

[2] = system: HAP1 MTAP-deleted cell line; test: SDMA in-cell western assay, HAP1 MTAP-deleted; assay type: cell-based; details: for IC50: Homo sapiens; for MTAP intact/deleted ratio: IC50 ratio HAP1 MTAP-intact / HAP1 MTAP-deleted, SDMA in-cell western
How it was run: (§1)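 Compounds were tested in HAP1 cells differing only in MTAP status (endogenous expression versus null). Cellular SDMA levels were then measured by in-cell western, giving an IC50 in each background.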

PRMT5 [3] = molecular target: T1, PRMT5; test: PRMT5 biochemical IC50 assay with no cofactor; details: PRMT5, no cofactor; read-out: No Cofactor/rel IC50
Description: Table 1 indicates IC50 values (μM) against PRMT5 for exemplary compounds in the presence of SAM as cofactor, with no cofactor, and with MTA as cofactor, respectively (columns 4-6). […] Ki values can be calculated from the IC50 values as described in the Examples section. As detailed in the Examples section, for the assay performed in the presence of SAM, IC50=Ki×1.5 (Ki=IC50/1.5).

PRMT5 [4] = molecular target: T1, PRMT5; test: PRMT5 biochemical IC50 assay with SAM as cofactor; details: PRMT5, SAM as cofactor; read-out: SAM IC50
[5] = system: HAP1 MTAP-deleted cell line; test: Viability assay, MTAP-deleted cell line; assay type: cell-based; details: Homo sapiens
Description: Table 1 additionally indicates IC50 values in a viability assay for the MTAP-deleted cell line (column 10), indicating the effect of treatment with compound on cell survival.

[6] = system: HAP1 MTAP-intact cell line; test: SDMA in-cell western assay, HAP1 MTAP-intact; assay type: cell-based; details: Homo sapiens
How it was run: as §1

[7] = HAP1, SDMA in-cell western, HAP1 MTAP-deleted, read-out: HAP 1 MTAP deleted IC50
[8] = HAP1, viability IC50, MTAP-deleted cell line, read-out: HAP1 MTAP deleted viability
[9] = HAP1, SDMA in-cell western, HAP1 MTAP-intact, read-out: MTAP HAP1 intact IC50
[10] = HAP1, read-out: HAP1 MTAP deleted IC50
[11] = HAP1, read-out: HAP1 MTAP deleted viability
[12] = HAP1, read-out: MTAP HAP1 intact IC50

T1 sequence (O14744 whole entry): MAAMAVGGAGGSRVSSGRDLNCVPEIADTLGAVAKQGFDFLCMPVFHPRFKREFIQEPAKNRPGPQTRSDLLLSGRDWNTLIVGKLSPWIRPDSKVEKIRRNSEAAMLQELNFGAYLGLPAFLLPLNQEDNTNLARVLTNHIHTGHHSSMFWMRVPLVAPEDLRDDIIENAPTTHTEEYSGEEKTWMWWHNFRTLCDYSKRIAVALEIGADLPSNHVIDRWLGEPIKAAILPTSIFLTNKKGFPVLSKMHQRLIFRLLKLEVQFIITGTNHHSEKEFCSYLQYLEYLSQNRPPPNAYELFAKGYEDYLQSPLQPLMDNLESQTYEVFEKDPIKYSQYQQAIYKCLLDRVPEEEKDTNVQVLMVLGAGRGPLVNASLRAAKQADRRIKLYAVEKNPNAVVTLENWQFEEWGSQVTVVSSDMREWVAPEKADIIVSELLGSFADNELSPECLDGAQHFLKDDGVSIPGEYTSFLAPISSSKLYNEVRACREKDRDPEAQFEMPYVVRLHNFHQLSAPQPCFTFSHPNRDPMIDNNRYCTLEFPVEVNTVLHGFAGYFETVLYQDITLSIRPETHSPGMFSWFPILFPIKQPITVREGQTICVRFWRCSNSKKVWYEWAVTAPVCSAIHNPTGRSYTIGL
T1 sequence (Q9BQA1 whole entry partner): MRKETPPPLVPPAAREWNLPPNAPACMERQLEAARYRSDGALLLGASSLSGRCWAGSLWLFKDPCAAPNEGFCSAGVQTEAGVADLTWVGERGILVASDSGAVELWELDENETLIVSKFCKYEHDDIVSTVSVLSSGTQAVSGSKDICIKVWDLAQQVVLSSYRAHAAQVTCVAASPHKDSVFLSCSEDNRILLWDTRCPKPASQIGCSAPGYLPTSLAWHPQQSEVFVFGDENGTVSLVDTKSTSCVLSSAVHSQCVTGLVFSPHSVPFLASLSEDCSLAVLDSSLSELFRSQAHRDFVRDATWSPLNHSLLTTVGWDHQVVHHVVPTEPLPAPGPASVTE

Structure (SMILES): Cc1cc([C@H]2CC[C@H](C)CN2C(=O)C(=O)Nc2cnc(N)c(C)c2)ccn1 (single isomer, unassigned) [Compound 593]
- IC50 (PRMT5 [1]): > 500 nM
- IC50 [2, 7]: > 1000 nM
- MTAP intact/deleted ratio [2]: B (an IC50 ratio greater than or equal to 3 fold but lower than 10 fold)
- IC50 (PRMT5 [3]): > 500 nM
- IC50 (PRMT5 [4]): > 500 nM
- IC50 [5, 8]: > 10000 nM
- IC50 [6, 9]: > 1000 nM

Structure (SMILES): Cc1cc(NC(=O)C(=O)N2C[C@H](C)CC[C@H]2c2ccc(F)c(Cl)c2)cnc1N (single isomer, unassigned) [Compound 596]
- IC50 (PRMT5 [1]): < 50 nM
- IC50 [2, 7]: < 100 nM
- MTAP intact/deleted ratio [2]: A (an IC50 ratio greater than or equal to 10 fold)
- IC50 (PRMT5 [3]): < 50 nM
- IC50 (PRMT5 [4]): 50 to 500 nM
- IC50 [5, 8]: < 1000 nM
- IC50 [6, 9]: 100 to 1000 nM

Structure (SMILES): CC(=O)Oc1ccc([C@H]2CC[C@H](C)CN2C(=O)C(=O)Nc2cnc(N)c(C)c2)cc1 (single isomer, unassigned) [Compound 597]
- IC50 (PRMT5 [1]): > 500 nM
- IC50 [2, 7]: > 1000 nM
- MTAP intact/deleted ratio [2]: B (an IC50 ratio greater than or equal to 3 fold but lower than 10 fold)
- IC50 (PRMT5 [3]): > 500 nM
- IC50 (PRMT5 [4]): > 500 nM
- IC50 [5, 8]: > 10000 nM
- IC50 [6, 9]: > 1000 nM

Structure (SMILES): C[C@H]1CC[C@H](c2ccc3c(c2)OCCN3)N(C(=O)C(=O)Nc2cncc(C(N)=O)c2)C1 (single isomer, unassigned) [Compound 598]
- IC50 (PRMT5 [1]): < 50 nM
- IC50 [2, 7]: < 100 nM
- MTAP intact/deleted ratio [2]: A (an IC50 ratio greater than or equal to 10 fold)
- IC50 (PRMT5 [3]): 50 to 500 nM
- IC50 (PRMT5 [4]): < 50 nM
- IC50 [5, 8]: < 1000 nM
- IC50 [6, 9]: > 1000 nM

Structure (SMILES): CC(=O)Oc1ccc([C@@H]2CC[C@@H](C)CN2C(=O)C(=O)Nc2cncc(C(N)=O)c2)cc1 (single isomer, unassigned) [Compound 599, 4-(1-(2-((5-carbamoylpyridin-3-yl)amino)-2-oxoacetyl)-5-methylpiperidin-2-yl)phenyl acetate]
- IC50 (PRMT5 [1]): > 500 nM
- IC50 [2, 7]: > 1000 nM
- MTAP intact/deleted ratio [2]: B (an IC50 ratio greater than or equal to 3 fold but lower than 10 fold)
- IC50 (PRMT5 [3]): > 500 nM
- IC50 (PRMT5 [4]): > 500 nM
- IC50 [5, 8]: > 10000 nM
- IC50 [6, 9]: > 1000 nM

Structure (SMILES): COc1ncc(NC(=O)C(=O)N2C[C@@H](C)CC[C@@H]2c2ccc3scnc3c2)cc1C(N)=O (single isomer, unassigned) [Compound 602]
- IC50 (PRMT5 [1]): < 50 nM
- IC50 [2, 10]: < 100 nM
- MTAP intact/deleted ratio [2]: A (an IC50 ratio greater than or equal to 10 fold)
- IC50 (PRMT5 [3]): < 50 nM
- IC50 (PRMT5 [4]): < 50 nM
- IC50 [5, 11]: < 1000 nM
- IC50 [6, 12]: 100 to 1000 nM

Structure (SMILES): COc1ncc(NC(=O)C(=O)N2C[C@H](C)CC[C@H]2c2ccc3scnc3c2)cc1C(N)=O (single isomer, unassigned) [Compound 603]
- IC50 (PRMT5 [1]): > 500 nM
- IC50 [2, 10]: > 1000 nM
- MTAP intact/deleted ratio [2]: C (an IC50 ratio of less than 3 fold)
- IC50 (PRMT5 [3]): > 500 nM
- IC50 (PRMT5 [4]): > 500 nM
- IC50 [5, 11]: > 10000 nM
- IC50 [6, 12]: > 1000 nM

Structure (SMILES): CC(=O)Oc1ccc([C@H]2CC[C@H](C)CN2C(=O)C(=O)Nc2cncc(C(N)=O)c2)cc1 (single isomer, unassigned) [Compound 604, 4-(1-(2-((5-carbamoylpyridin-3-yl)amino)-2-oxoacetyl)-5-methylpiperidin-2-yl)phenyl acetate]
- IC50 (PRMT5 [1]): 50 to 500 nM
- IC50 [2, 7]: < 100 nM
- MTAP intact/deleted ratio [2]: A (an IC50 ratio greater than or equal to 10 fold)
- IC50 (PRMT5 [3]): 50 to 500 nM
- IC50 (PRMT5 [4]): < 50 nM
- IC50 [5, 8]: < 1000 nM
- IC50 [6, 9]: 100 to 1000 nM

Structure (SMILES): Cc1cc(NC(=O)C(=O)N2C[C@@H](C)CC[C@@H]2c2ccc(F)c(Cl)c2)cnc1N (single isomer, unassigned) [Compound 606]
- IC50 (PRMT5 [1]): > 500 nM
- IC50 [2, 7]: > 1000 nM
- MTAP intact/deleted ratio [2]: B (an IC50 ratio greater than or equal to 3 fold but lower than 10 fold)
- IC50 (PRMT5 [3]): > 500 nM
- IC50 (PRMT5 [4]): > 500 nM
- IC50 [5, 8]: > 10000 nM
- IC50 [6, 9]: > 1000 nM

Structure (SMILES): C[C@@H]1CC[C@@H](c2ccc(N)cn2)N(C(=O)C(=O)Nc2cncc(C(N)=O)c2)C1 (single isomer, unassigned) [Compound 607]
- IC50 (PRMT5 [1]): 50 to 500 nM
- IC50 [2, 7]: > 1000 nM
- MTAP intact/deleted ratio [2]: B (an IC50 ratio greater than or equal to 3 fold but lower than 10 fold)
- IC50 (PRMT5 [3]): > 500 nM
- IC50 (PRMT5 [4]): 50 to 500 nM
- IC50 [5, 8]: > 10000 nM
- IC50 [6, 9]: > 1000 nM

Structure (SMILES): Cc1cc([C@@H]2CC[C@@H](C)CN2C(=O)C(=O)Nc2cnc(N)c(C)c2)ccn1 (single isomer, unassigned) [Compound 608]
- IC50 (PRMT5 [1]): < 50 nM
- IC50 [2, 7]: < 100 nM
- MTAP intact/deleted ratio [2]: A (an IC50 ratio greater than or equal to 10 fold)
- IC50 (PRMT5 [3]): < 50 nM
- IC50 (PRMT5 [4]): < 50 nM
- IC50 [5, 8]: < 1000 nM
- IC50 [6, 9]: 100 to 1000 nM

Structure (SMILES): C[C@@H]1CC[C@@H](c2ccc3[nH]ncc3c2F)N(C(=O)C(=O)Nc2cncc(C(N)=O)c2)C1 (single isomer, unassigned) [Compound 612]
- IC50 (PRMT5 [1]): < 50 nM
- IC50 [2, 7]: < 100 nM
- MTAP intact/deleted ratio [2]: A (an IC50 ratio greater than or equal to 10 fold)
- IC50 (PRMT5 [3]): 50 to 500 nM
- IC50 (PRMT5 [4]): 50 to 500 nM
- IC50 [5, 8]: 1000 to 10000 nM
- IC50 [6, 9]: > 1000 nM

Structure (SMILES): C[C@H]1CC[C@H](c2cc(F)cc(Cl)c2)N(C(=O)C(=O)Nc2cncc(C(N)=O)c2)C1 (single isomer, unassigned) [Compound 615]
- IC50 (PRMT5 [1]): < 50 nM
- IC50 [2, 7]: < 100 nM
- MTAP intact/deleted ratio [2]: A (an IC50 ratio greater than or equal to 10 fold)
- IC50 (PRMT5 [3]): 50 to 500 nM
- IC50 (PRMT5 [4]): 50 to 500 nM
- IC50 [5, 8]: 1000 to 10000 nM
- IC50 [6, 9]: > 1000 nM

Structure (SMILES): Cc1cc(NC(=O)C(=O)N2C[C@H](C)CC[C@H]2c2ccc3sccc3c2)cnc1N (single isomer, unassigned) [Compound 617]
- IC50 (PRMT5 [1]): > 500 nM
- IC50 [2, 7]: 100 to 1000 nM
- MTAP intact/deleted ratio [2]: A (an IC50 ratio greater than or equal to 10 fold)
- IC50 (PRMT5 [3]): > 500 nM
- IC50 (PRMT5 [4]): > 500 nM
- IC50 [5, 8]: > 10000 nM
- IC50 [6, 9]: > 1000 nM

Structure (SMILES): COc1ncc(NC(=O)C(=O)N2C[C@@H](C)CC[C@@H]2c2ccc3sccc3c2)cc1C(N)=O (single isomer, unassigned) [Compound 618]
- IC50 (PRMT5 [1]): < 50 nM
- IC50 [2, 7]: < 100 nM
- MTAP intact/deleted ratio [2]: A (an IC50 ratio greater than or equal to 10 fold)
- IC50 (PRMT5 [3]): < 50 nM
- IC50 (PRMT5 [4]): < 50 nM
- IC50 [5, 8]: < 1000 nM
- IC50 [6, 9]: > 1000 nM

Structure (SMILES): Cc1cc(NC(=O)C(=O)N2C[C@@H](C)CC[C@@H]2c2ccc3c(c2)CCC(=O)N3)cnc1C (single isomer, unassigned) [Compound 619]
- IC50 (PRMT5 [1]): > 500 nM
- IC50 [2, 7]: 100 to 1000 nM
- MTAP intact/deleted ratio [2]: A (an IC50 ratio greater than or equal to 10 fold)
- IC50 (PRMT5 [3]): > 500 nM
- IC50 (PRMT5 [4]): > 500 nM
- IC50 [5, 8]: 1000 to 10000 nM
- IC50 [6, 9]: > 1000 nM

Structure (SMILES): Cc1cc(NC(=O)C(=O)N2C[C@@H](C)CC[C@@H]2c2ccc3[nH]ncc3c2)cnc1C (single isomer, unassigned) [Compound 620]
- IC50 (PRMT5 [1]): < 50 nM
- IC50 [2, 7]: < 100 nM
- MTAP intact/deleted ratio [2]: A (an IC50 ratio greater than or equal to 10 fold)
- IC50 (PRMT5 [3]): < 50 nM
- IC50 (PRMT5 [4]): 50 to 500 nM
- IC50 [5, 8]: < 1000 nM
- IC50 [6, 9]: 100 to 1000 nM

Structure (SMILES): Cc1cc(NC(=O)C(=O)N2C[C@@H](C)CC[C@@H]2c2ccc(NS(C)(=O)=O)cc2)cnc1C (single isomer, unassigned) [Compound 621]
- IC50 (PRMT5 [1]): < 50 nM
- IC50 [2, 7]: < 100 nM
- MTAP intact/deleted ratio [2]: A (an IC50 ratio greater than or equal to 10 fold)
- IC50 (PRMT5 [3]): < 50 nM
- IC50 (PRMT5 [4]): 50 to 500 nM
- IC50 [5, 8]: 1000 to 10000 nM
- IC50 [6, 9]: 100 to 1000 nM
